According to ChEMBL document CHEMBL4665736, “Synthesis and structural insights into the binding mode of the albomycin δ1 core and its analogues in complex with their target aminoacyl-tRNA synthetase” (Bioorg Med Chem, 2020):
pIC50: −log10 of the molar value. Active and inactive are the calls of the source. No cut-off for these calls is given here.

Columns and labels:
[1] = target: Serine--tRNA ligase (Escherichia coli (strain K12)) (UniProt P0A8L1); experiment: (§1) Inhibition of recombinant Escherichia coli BL21(DE3) seryl-tRNA synthetase expressed in Escherichia coli Rosetta 2 (DE3) assessed as reduction in tRNA aminoacylation at 1 uM preincubated for 10 mins in presence of [14C]-serine and tRNA and iPPase followed by ATP addition by scintillation counting method relative to control
Chain of Serine--tRNA ligase (Escherichia coli (strain K12)) (P0A8L1 whole entry, looked up): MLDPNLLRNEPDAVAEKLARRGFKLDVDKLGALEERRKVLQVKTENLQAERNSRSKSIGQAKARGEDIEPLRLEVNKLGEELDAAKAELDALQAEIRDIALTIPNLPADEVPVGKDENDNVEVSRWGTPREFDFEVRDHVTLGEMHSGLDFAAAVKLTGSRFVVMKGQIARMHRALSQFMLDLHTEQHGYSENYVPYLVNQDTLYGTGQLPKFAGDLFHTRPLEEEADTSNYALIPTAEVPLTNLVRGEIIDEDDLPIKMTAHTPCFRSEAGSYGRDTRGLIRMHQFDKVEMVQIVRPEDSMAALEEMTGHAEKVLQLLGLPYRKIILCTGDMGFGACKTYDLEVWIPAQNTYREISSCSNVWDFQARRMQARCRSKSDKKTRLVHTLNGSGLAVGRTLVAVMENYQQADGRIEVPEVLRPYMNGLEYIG

[2] = target: Serine--tRNA ligase (Escherichia coli (strain K12)) (UniProt P0A8L1); experiment: as §1, with “at 0.1” for “at 1”
[3] = test system: Escherichia coli BL21(DE3); experiment: (§2) Inhibition of recombinant Escherichia coli BL21(DE3) isoleucyl-tRNA synthetase expressed in Escherichia coli Rosetta 2 (DE3) assessed as reduction in tRNA aminoacylation at 10 uM preincubated for 10 mins in presence of [14C]-isoleucin and tRNA and iPPase followed by ATP addition and measured after 6 mins by scintillation counting method; details: time 16.0 min
[4] = test system: Escherichia coli BL21(DE3); experiment: as §1, with “aspartyl-tRNA” for “seryl-tRNA”, “[14C]-aspartate” for “[14C]-serine”, “method” for “method relative to control”
[5] = target: Serine--tRNA ligase (Escherichia coli (strain K12)) (UniProt P0A8L1); experiment: as §1, with “at 10” for “at 1”
[6] = test system: Escherichia coli BL21(DE3); experiment: as §1, with “BL21(DE3) aspartyl-tRNA” for “BL21(DE3) seryl-tRNA”, “at 0.1” for “at 1”, “of [14C]-aspartate” for “of [14C]-serine”
[7] = test system: Escherichia coli BL21(DE3); experiment: as §2, with “aspartyl-tRNA” for “isoleucyl-tRNA”, “nM” for “uM”, “[14C]-aspartate” for “[14C]-isoleucin”, “addition” for “addition and measured after 6 mins”
[8] = Inhibition of recombinant Escherichia coli BL21(DE3) aspartyl-tRNA synthetase expressed in Escherichia coli Rosetta 2 (DE3) assessed as reduction in tRNA aminoacylation preincubated for 10 mins in presence of [14C]-aspartate and tRNA and iPPase followed by ATP addition by scintillation counting method

In the case of `Cn1c(=O)ccn([C@@H]2S[C@H]([C@@H](O)[C@@H](NC(=O)[C@@H](N)CO)C(=O)O)[C@H](O)[C@H]2O)c1=O`, the inhibition [1] was 80% and the inhibition [2] was 50%.

In the case of `CC[C@H](C)[C@H](N)C(=O)NC(C(=O)O)C(O)[C@H]1S[C@@H](n2ccc(=O)n(C)c2=O)[C@H](O)[C@H]1O` (mixture of isomers), the inhibition [3] was “inactive”.

With `Cn1c(=O)ccn([C@@H]2S[C@H]([C@H](O)[C@H](NC(=O)[C@@H](N)CC(=O)O)C(=O)O)[C@H](O)[C@H]2O)c1=O` the inhibition [4] was “inactive”.

With `Cn1c(=O)ccn([C@@H]2S[C@H]([C@H](O)[C@H](NC(=O)[C@@H](N)CO)C(=O)O)[C@H](O)[C@H]2O)c1=O` the inhibition [5] was 25%.

For `Cn1c(=O)ccn([C@@H]2S[C@H]([C@@H](O)[C@@H](NC(=O)[C@@H](N)CC(=O)O)C(=O)O)[C@H](O)[C@H]2O)c1=O`, the inhibition [6] was 60%, the inhibition [7] was “Active” and the pIC50 [8] was 7.51.
